Data taken from the supplement of paper PMC10307832.

What follows are cell lines tested with c1ccc2c(CCNc3ccc(Nc4ccncc4)cc3)c[nH]c2c1 [Serdemetan] + Cc1cc(Nc2cc(N3CCN(C)CC3)nc(Sc3ccc(NC(=O)C4CC4)cc3)n2)n[nH]1 [Tozasertib] (partner 0.1 µM) (assay: relative viability (nuclei count vs DMSO), 5 days (fraction); higher = more cells survive). Conditions: first compound 0.04 µM.
Method in brief: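 For relative viability, nuclei counts in treated wells were divided by those in vehicle wells. Lung cancer cell lines had been pin-tool dosed in 1536-well plates the day after seeding and cultured for 5 days, then fixed and stained in one step (final 0.05% Triton X-100, 1% formaldehyde, 1 ug/ml Hoechst) and imaged at 4×. Doses were one drug alone or a fixed anchor-drug dose plus five library-drug doses (not always all listed) in √10 steps, and values are duplicate-plate medians.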
CAL-12T showed a relative viability of 0.272. NCI-H1651 was tested, and the relative viability was 0.696. EPLC-272H was tested, and the relative viability was 0.269. NCI-H2228 was tested, and the relative viability was 0.267. For NCI-H1355, the relative viability was 0.489. NCI-H3122 showed a relative viability of 0.369. For NCI-H1437, the relative viability was 0.375. NCI-H1755 showed a relative viability of 0.568. For NCI-H2023, the relative viability was 0.377. Work on HCC-15 yielded a relative viability of 0.377. Work on NCI-H1793 yielded a relative viability of 0.332. For PC-14, the relative viability was 0.522. With EKVX the relative viability was 0.424. In the case of LC-2-ad, the relative viability is reported as 0.397. NCI-H1944 was tested, and the relative viability was 0.249. Work on NCI-H1975 yielded a relative viability of 0.825. In the case of RERF-LC-KJ, the relative viability is reported as 0.49. Cell Line ABC-1 has a relative viability of 0.132. Cell Line NCI-H358 has a relative viability of 0.0807. Cell Line NCI-H650 has a relative viability of 0.661. PC-3 [JPC-3] was tested, and the relative viability was 0.841.

Same assay, conditions: first compound 0.1265 µM
In the case of LXF-289, the relative viability is reported as 0.21. NCI-H23 showed a relative viability of 0.413. For NCI-H647, the relative viability was 0.291. Cell Line CAL-12T has a relative viability of 0.318. For NCI-H1651, the relative viability was 0.613. In the case of EPLC-272H, the relative viability is reported as 0.309. NCI-H2228 was tested, and the relative viability was 0.246. NCI-H1355 showed a relative viability of 0.508. NCI-H3122 showed a relative viability of 0.431. NCI-H1437 was tested, and the relative viability was 0.399. NCI-H1755 gave a relative viability of 0.625. With NCI-H2023 the relative viability was 0.359. With HCC-15 the relative viability was 0.367. Work on NCI-H1793 yielded a relative viability of 0.298. With PC-14 the relative viability was 0.595. EKVX gave a relative viability of 0.426. In the case of LC-2-ad, the relative viability is reported as 0.487. In the case of NCI-H1944, the relative viability is reported as 0.278. NCI-H1975 showed a relative viability of 0.701. RERF-LC-KJ gave a relative viability of 0.441. For ABC-1, the relative viability was 0.171. Work on NCI-H358 yielded a relative viability of 0.105. Work on NCI-H650 yielded a relative viability of 0.679. Work on PC-3 [JPC-3] yielded a relative viability of 0.795.

Same assay, conditions: first compound 0.4 µM
In the case of LXF-289, the relative viability is reported as 0.171. NCI-H23 gave a relative viability of 0.358. NCI-H647 gave a relative viability of 0.226. In the case of CAL-12T, the relative viability is reported as 0.246. With NCI-H1651 the relative viability was 0.338. EPLC-272H showed a relative viability of 0.306. NCI-H2228 gave a relative viability of 0.371. NCI-H1355 showed a relative viability of 0.443. With NCI-H3122 the relative viability was 0.382. For NCI-H1437, the relative viability was 0.383. NCI-H1755 was tested, and the relative viability was 0.55. NCI-H2023 showed a relative viability of 0.309. In the case of HCC-15, the relative viability is reported as 0.377. NCI-H1793 showed a relative viability of 0.268. Cell Line EKVX has a relative viability of 0.327. Work on LC-2-ad yielded a relative viability of 0.459. NCI-H1944 showed a relative viability of 0.234. In the case of NCI-H1975, the relative viability is reported as 0.722. RERF-LC-KJ was tested, and the relative viability was 0.479. For ABC-1, the relative viability was 0.182. Cell Line NCI-H358 has a relative viability of 0.111. In the case of NCI-H650, the relative viability is reported as 0.803. PC-3 [JPC-3] was tested, and the relative viability was 0.784.

Same assay, conditions: first compound 1.265 µM
LXF-289 was tested, and the relative viability was 0.164. For NCI-H23, the relative viability was 0.305. NCI-H647 was tested, and the relative viability was 0.287. Cell Line CAL-12T has a relative viability of 0.309. NCI-H1651 was tested, and the relative viability was 0.343. EPLC-272H gave a relative viability of 0.169. NCI-H2228 showed a relative viability of 0.128. In the case of NCI-H1355, the relative viability is reported as 0.381. For NCI-H3122, the relative viability was 0.406. NCI-H1437 gave a relative viability of 0.331. Cell Line NCI-H1755 has a relative viability of 0.435. For NCI-H2023, the relative viability was 0.298. In the case of HCC-15, the relative viability is reported as 0.294. For NCI-H1793, the relative viability was 0.255. Work on PC-14 yielded a relative viability of 0.548. For LC-2-ad, the relative viability was 0.461. Cell Line NCI-H1944 has a relative viability of 0.158. RERF-LC-KJ showed a relative viability of 0.455. In the case of ABC-1, the relative viability is reported as 0.177. For NCI-H358, the relative viability was 0.102. NCI-H650 gave a relative viability of 0.642. For PC-3 [JPC-3], the relative viability was 0.929.

Same assay, conditions: first compound 4 µM
For LXF-289, the relative viability was 0.118. Cell Line NCI-H23 has a relative viability of 0.265. Cell Line NCI-H647 has a relative viability of 0.223. Cell Line CAL-12T has a relative viability of 0.327. Cell Line NCI-H1651 has a relative viability of 0.292. EPLC-272H showed a relative viability of 0.249. For NCI-H2228, the relative viability was 0.162. In the case of NCI-H1355, the relative viability is reported as 0.385. NCI-H3122 showed a relative viability of 0.337. Cell Line NCI-H1437 has a relative viability of 0.285. For NCI-H1755, the relative viability was 0.354. In the case of NCI-H2023, the relative viability is reported as 0.153. Work on HCC-15 yielded a relative viability of 0.283. NCI-H1793 showed a relative viability of 0.186. For PC-14, the relative viability was 0.428. EKVX was tested, and the relative viability was 0.29. LC-2-ad gave a relative viability of 0.385. With NCI-H1944 the relative viability was 0.165. NCI-H1975 was tested, and the relative viability was 0.771. RERF-LC-KJ showed a relative viability of 0.469. ABC-1 gave a relative viability of 0.162. NCI-H358 showed a relative viability of 0.0954. NCI-H650 showed a relative viability of 0.581. PC-3 [JPC-3] was tested, and the relative viability was 0.87.
